From patent US7449477B2, “7-phenyl-isoquinoline-5-sulfonylamino derivatives as inhibitors of akt (protein kinase B)” (Eli Lilly and Company, priority 2003, dated 2008)
Counter-ions that a name gives are not always drawn.

Each compound was assayed against T1, active human Akt1 (Homo sapiens, UniProt P31749) (assay: Akt1 Phosphorylation Assay (phosphocellulose filter-binding, 33P-Crosstide)). Settings: active human recombinant Akt1 (full-length) 10 nM; 12.5 μM Crosstide; 20 μM ATP; 30 minutes at room temperature.
T1 construct: Active human recombinant Akt1 (full-length) purified from Sf9 insect cells; purchased Upstate Biotechnology, Inc. 14-276; host or cells: Sf9 insect cells
T1 sequence (P31749 whole entry): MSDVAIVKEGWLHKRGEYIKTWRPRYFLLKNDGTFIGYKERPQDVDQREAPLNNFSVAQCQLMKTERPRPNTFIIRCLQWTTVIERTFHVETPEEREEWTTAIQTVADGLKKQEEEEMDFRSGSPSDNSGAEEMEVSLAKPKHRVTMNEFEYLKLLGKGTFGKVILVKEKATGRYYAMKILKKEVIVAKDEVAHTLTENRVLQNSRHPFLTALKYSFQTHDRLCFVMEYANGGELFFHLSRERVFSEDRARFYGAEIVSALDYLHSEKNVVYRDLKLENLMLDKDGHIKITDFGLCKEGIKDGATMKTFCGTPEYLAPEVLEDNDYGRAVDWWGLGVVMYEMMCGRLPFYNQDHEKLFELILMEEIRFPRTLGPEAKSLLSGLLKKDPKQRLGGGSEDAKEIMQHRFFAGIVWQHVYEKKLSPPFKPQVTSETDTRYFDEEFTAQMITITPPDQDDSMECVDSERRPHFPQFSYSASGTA
Format: biochemical
Description: Akt1 Phosphorylation Assay
The assay described measures the phosphorylation of Crosstide by active human Akt1 and other Akt isoforms. Crosstide contains a consensus sequence derived from Akt substrates GSK3b and forkhead transcription factors (FKs). The ^33P-labeled Crosstide substrate is captured by phosphocellulose membrane filter plates.
Active human recombinant Akt1 (full-length) purified from Sf9 insect cells is from Upstate Biotechnology, Inc. (Cat. #14-276, 405 μg/ml). Crosstide substrate, NH2-GRPRTSSFAEG-COOH (M.W.1164) is purchased from Multiple Peptide System (Cat. # L59/GR145-153).
Solution (A): 20% DMSO (dimethylsulphoxide) or Compound in 20% DMSO; Solution (B): Assay Buffer Mix: 31.25 μM Crosstide, 37.5 mM MgCl2, 87.5 mM HEPES, pH 7.3, 50 μM ATP γ-^33P-ATP, 0.05 μCi/μl; Solution (C): Akt Kinase Mix: 31.25 mM HEPES, pH 7.3; 1 mM DTT, 25 nM UBI Akt1.
Procedure for Phosphocellulose Filter-Binding Assay
Ten μl of Solution (A) are first mixed with 20 μl Solution (B). The enzymatic reaction is initiated by adding 20 μl Solution (C) to the mixture. (Final concentration or amount in a 50-μl reaction mix: 4% DMSO or various compound concentration in 4% DMSO; 12.5 μM Crosstide; 15 mM MgCl2; 35 mM HEPES, pH7.3; 20 μM ATP; 1 μCi γ-^33P-ATP; 0.4 mM DTT; 10 nM UBI Akt1.) The reactions are performed in 96-well microtiter plates.
After 30 minutes at room temperature, the reaction is terminated by adding 80 μl of 10% H3PO4. An aliquot of 100 μl from each well is transferred to the phosphocellulose filter plate (Millipore MultiScreen, Catalog #MAPHN0B50). After 30 minutes, the reaction mix is filtered with a Millipore manifold following by 3 washes with 0.5% H3PO4. The filter is then vacuum-dried and the plate is fitted onto a Packard carrier. 100 μl/well Microscint20 are added and the contents are counted in a Packard Top Count.

Row | Structure (SMILES) | IC50 [nM]
1 | CN(C)S(=O)(=O)c1ccc(CCCNCCNS(=O)(=O)c2cc(-c3ccccc3)cc3cnccc23)cc1 [Example 24, 7-Phenyl-isoquinoline-5-sulfonic acid {2-[3-(4-(N,N-dimethyl-aminosulfonyl)phenyl)-propyl-amino]-ethyl}-amide, dihydrochloride salt] | ≤ 2000
2 | O=[N+]([O-])c1ccc([C@@H](O)CCNCCNS(=O)(=O)c2cc(-c3ccccc3)cc3cnccc23)cc1 [Example 82, (S)-7-Phenyl-isoquinoline-5-sulfonic acid [2-(3-hydroxy-3-(4-nitrophenyl)-propylamino)-ethyl]-amide, mesylate salt] | ≤ 2000
3 | Cc1cc([N+](=O)[O-])ccc1CCCNCCNS(=O)(=O)c1cc(-c2ccccc2)cc2cnccc12 [Example 40, 7-Phenyl-isoquinoline-5-sulfonic acid {2-[3-(2-methyl-4-nitrophenyl)-propylamino]-ethyl}-amide, dihydrochloride salt] | ≤ 2000
4 | N#Cc1cccc(CCCNCCNS(=O)(=O)c2cc(-c3ccccc3)cc3cnccc23)c1 [Example 32, 7-Phenyl-isoquinoline-5-sulfonic acid {2-[3-(3-cyanophenyl)-propylamino]-ethyl}-amide, dihydrochloride salt] | ≤ 2000
5 | O=[N+]([O-])c1ccc(CCCNCCNS(=O)(=O)c2cc(-c3ccccc3)cc3cnccc23)c(Cl)c1 [Example 38, 7-Phenyl-isoquinoline-5-sulfonic acid {2-[3-(2-chloro-4-nitrophenyl)-propylamino]-ethyl}-amide, dihydrochloride salt] | ≤ 2000
6 | O=S(=O)(NCCNCCCc1ccc(Cl)cc1Cl)c1cc(-c2ccccc2)cc2cnccc12 [Example 65, 7-Phenyl-isoquinoline-5-sulfonic acid {2-[3-(2,4-dichlorophenyl)-propylamino]-ethyl}-amide, dihydrochloride salt] | ≤ 2000
7 | O=S(=O)(NCCNCCCc1ccc(OC(F)F)cc1)c1cc(-c2ccccc2)cc2cnccc12 [Example 30, 7-Phenyl-isoquinoline-5-sulfonic acid {2-[3-(4-difluoromethoxy-phenyl)-propylamino]-ethyl}-amide, dihydrochloride salt] | ≤ 2000
8 | N#Cc1ccc(CCCNCCNS(=O)(=O)c2cc(-c3ccccc3)cc3cnccc23)cc1C(F)(F)F [Example 67, 7-Phenyl-isoquinoline-5-sulfonic acid {2-[3-(4-cyano-3-trifluoromethylphenyl)-propylamino]-ethyl}-amide, dihydrochloride salt] | ≤ 2000
9 | O=[N+]([O-])c1cccc(-c2cc(Cl)ccc2CCCNCCNS(=O)(=O)c2cc(-c3ccccc3)cc3cnccc23)c1 [Example 47, 7-Phenyl-isoquinoline-5-sulfonic acid {2-[3-(5-chloro-3′-nitro-biphenyl-2-yl)-propylamino]-ethyl}-amide, dihydrochloride salt] | ≤ 2000
10 | O=[N+]([O-])c1ccc(C(O)C(O)CNCCNS(=O)(=O)c2cc(-c3ccccc3)cc3cnccc23)cc1 (single isomer, unassigned; isomer 1) [Example 88, 7-Phenyl-isoquinoline-5-sulfonic acid [2-(2,3-dihydroxy-3-(4-nitrophenyl)-propylamino)-ethyl]-amide isomer 1, dihydrochloride salt] | ≤ 2000
11 | O=[N+]([O-])c1ccc(CCCNCCNS(=O)(=O)c2cc(-c3ccccc3O)cc3cnccc23)cc1 [Example 91, 7-(2-hydroxy-phenyl)-isoquinoline-5-sulfonic acid {2-[3-(4-nitro-phenyl)-propylamino]-ethyl}-amide, dihydrochloride salt] | ≤ 2000

More lines, now with the values ahead:

Row | IC50 [nM] | Structure (SMILES)
12 | ≤ 2000 | O=[N+]([O-])c1ccc(CCCNCCNS(=O)(=O)c2cc(-c3cccc(F)c3)cc3cnccc23)cc1 [Example 93, 7-(3-fluorophenyl)-isoquinoline-5-sulfonic acid [2-(3-(4-nitrophenyl)-propylamino)-ethyl]-amide]
13 | ≤ 2000 | O=S(=O)(NCCNCCCc1cccc(F)c1F)c1cc(-c2ccccc2)cc2cnccc12 [Example 68, 7-Phenyl-isoquinoline-5-sulfonic acid {2-[3-(2,3-difluorophenyl)-propylamino]-ethyl}-amide, dihydrochloride salt]
14 | ≤ 2000 | COC(=O)c1cc([N+](=O)[O-])ccc1CCCNCCNS(=O)(=O)c1cc(-c2ccccc2)cc2cnccc12 [Example 62, 7-Phenyl-isoquinoline-5-sulfonic acid {2-[3-(2-methoxycarbonyl-4-nitrophenyl)-propylamino]-ethyl}-amide, dihydrochloride salt]
15 | ≤ 2000 | O=S(=O)(NCCNCCCc1ccccc1N1C=CC=NC=C1)c1cc(-c2ccccc2)cc2cnccc12 [Example 7, 7-Phenyl-isoquinoline-5-sulfonic acid {2-[3-(2-[1,4]diazepin-1-yl-phenyl)-propylamino]-ethyl}-amide, tetrahydrochloride salt]
16 | ≤ 2000 | O=[N+]([O-])c1ccc(CC(O)CNCCNS(=O)(=O)c2cc(-c3ccccc3)cc3cnccc23)cc1 (single isomer, unassigned; isomer 1) [Example 85, 7-Phenyl-isoquinoline-5-sulfonic acid [2-(2-hydroxy-3-(4-nitrophenyl)-propylamino)-ethyl]-amide isomer 1, dihydrochloride salt]
17 | ≤ 2000 | N#Cc1ccc(C(O)C(O)CNCCNS(=O)(=O)c2cc(-c3ccccc3)cc3cnccc23)cc1 (centres unmarked) [Example 112, 7-Phenyl-isoquinoline-5-sulfonic acid {2-[3-(4-cyano-phenyl)-2,3-dihydroxy-propylamino]-ethyl}-amide, dihydrochloride salt]
18 | ≤ 2000 | CS(=O)(=O)Nc1cccc(-c2cc(S(=O)(=O)NCCNCCCc3ccc([N+](=O)[O-])cc3)c3ccncc3c2)c1 [Example 94, 7-(3-methanesulfonylamino-phenyl)-isoquinoline-5-sulfonic acid {2-[3-(4-nitro-phenyl)-propylamino]-ethyl}-amide, dihydrochloride salt]
19 | ≤ 2000 | N#Cc1ccc(CCCNCCNS(=O)(=O)c2cc(-c3ccccc3)cc3cnccc23)cc1 [Example 33, 7-Phenyl-isoquinoline-5-sulfonic acid {2-[3-(4-cyanophenyl)-propylamino]-ethyl}-amide, dihydrochloride salt]
20 | ≤ 2000 | CCc1cc([N+](=O)[O-])ccc1CCCNCCNS(=O)(=O)c1cc(-c2ccccc2)cc2cnccc12 [Example 103, 7-Phenyl-isoquinoline-5-sulfonic acid {2-[3-(2-ethyl-4-nitro-phenyl)-propylamino]-ethyl}-amide, dihydrochloride salt]
21 | ≤ 2000 | Nc1ccc(CCCNCCNS(=O)(=O)c2cc(-c3ccccc3)cc3cnccc23)cc1 [Example 72, 7-Phenyl-isoquinoline-5-sulfonic acid [2-(3-(4-aminophenyl)-propylamino)-ethyl]-amide, dihydrochloride salt]
22 | ≤ 2000 | COc1ccc(CCCNCCNS(=O)(=O)c2cc(-c3cccc(O)c3)cc3cnccc23)c(F)c1 [Example 110, 7-(3-Hydroxy-phenyl)-isoquinoline-5-sulfonic acid {2-[3-(2-fluoro-4-methoxy-phenyl)-propylamino]-ethyl}-amide]
23 | ≤ 2000 | CN(C)CCOc1cc(Cl)ccc1CCCNCCNS(=O)(=O)c1cc(-c2ccccc2)cc2cnccc12 [Example 59, 7-Phenyl-isoquinoline-5-sulfonic acid {2-[3-(4-chloro-2-(2-dimethylamino-ethoxy)-phenyl)-propylamino]-ethyl}-amide, dihydrochloride salt]
24 | ≤ 2000 | Nc1ccc(-c2cc(S(=O)(=O)NCCNCCCc3ccc([N+](=O)[O-])cc3)c3ccncc3c2)cc1 [Example 90, 7-(4-aminophenyl)-isoquinoline-5-sulfonic acid [2-(3-(4-nitrophenyl)-propylamino)-ethyl]-amide, trihydrochloride salt]
25 | ≤ 2000 | O=[N+]([O-])c1ccc(CCCNCCNS(=O)(=O)c2cc(-c3ccccc3)cc3cnccc23)c(-c2ccccc2)c1 [Example 42, 7-Phenyl-isoquinoline-5-sulfonic acid {2-[3-(5-nitro-biphenyl-2-yl)-propylamino]-ethyl}-amide, dihydrochloride salt]
26 | ≤ 2000 | COc1cc([N+](=O)[O-])ccc1CCCNCCNS(=O)(=O)c1cc(-c2ccccc2)cc2cnccc12 [Example 63, 7-Phenyl-isoquinoline-5-sulfonic acid {2-[3-(2-methoxy-4-nitrophenyl)-propylamino]-ethyl}-amide, dihydrochloride salt]
